Measurements reported in patent publication US10517889B2, “Modulators of SMAD7 expression” (Ionis Pharmaceuticals, Inc., priority 2017, dated 2019).
Strand notation (5' to 3'): a small letter for the sugar, then the base; units joined by * are phosphorothioate-linked, units joined directly phosphodiester-linked; [ ] holds rarer units or linkages, { } end groups; capitals alone tell only the bases. k = constrained ethyl (cEt); [5mC] = 5-methylcytosine; d = 2'-deoxy (DNA)

Tested on: human SMAD7 mRNA
Test: Antisense inhibition of human SMAD7 mRNA expression in Hep3B cells by 3-10-3 cEt gapmers, 10,000 nM, electroporation (Example 2)
Assay type: cell-based
Settings: approximately 24 hours
Procedure, shortened: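 Percent inhibition of SMAD7 mRNA, relative to untreated cells, after ~24 h exposure of electroporated Hep3B cells to 10,000 nM cEt gapmer; levels by qRT-PCR, corrected for total RNA.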

[1] = Hep3B cells, 10,000 nM antisense oligonucleotide, electroporation, RT-PCR primer probe set RTS5062, relative to untreated control cells
[2] = Hep3B cells, electroporation with 10,000 nM antisense oligonucleotide, SMAD7 mRNA by RT-PCR (RTS5062), relative to untreated control cells

799995 (k[5mC]*kT*kG*dT*dG*dA*dG*dG*d[5mC]*dA*d[5mC]*dT*dT*kG*kG*kA; antisense) [compound 799995]
% Inhibition [1]: 63%

799996 (kG*kA*k[5mC]*d[5mC]*d[5mC]*dA*d[5mC]*dG*dG*dT*dT*dA*dA*kA*kT*kG; antisense) [compound 799996]
% Inhibition [1]: 36%

799997 (kA*kT*kG*dA*d[5mC]*d[5mC]*d[5mC]*dA*d[5mC]*dG*dG*dT*dT*kA*kA*kA; antisense) [compound 799997]
% Inhibition [1]: 14%

799998 (k[5mC]*kA*kG*dT*dA*dA*dA*dG*dA*d[5mC]*dA*dT*dG*kA*kG*k[5mC]; antisense) [compound 799998]
% Inhibition [1]: 45%

799999 (kT*kT*kA*dG*dG*dA*dA*d[5mC]*dA*dA*dG*dG*dG*k[5mC]*kA*kA; antisense) [compound 799999]
% Inhibition [1]: 23%

800000 (k[5mC]*kA*kT*dT*dT*dA*dG*dG*dA*dA*d[5mC]*dA*dA*kG*kG*kG; antisense) [compound 800000]
% Inhibition [2]: 37%

800001 (k[5mC]*kA*kA*dG*dA*dT*dT*d[5mC]*d[5mC]*dA*dT*dT*dT*kA*kG*kG; antisense) [compound 800001]
% Inhibition [2]: 2%

800002 (k[5mC]*k[5mC]*k[5mC]*d[5mC]*dA*dA*dG*dA*dT*dT*d[5mC]*d[5mC]*dA*kT*kT*kT; antisense) [compound 800002]
% Inhibition [2]: 0%

800003 (kA*kG*kA*dA*d[5mC]*dA*d[5mC]*dG*dG*dG*d[5mC]*dA*d[5mC]*kG*k[5mC]*kG; antisense) [compound 800003]
% Inhibition [2]: 24%

800004 (kT*kT*kT*dT*dA*dA*dT*dT*dT*dG*dA*dA*dG*kG*k[5mC]*kG; antisense) [compound 800004]
% Inhibition [2]: 8%

800005 (k[5mC]*k[5mC]*kG*d[5mC]*dA*d[5mC]*d[5mC]*d[5mC]*dA*dG*dA*d[5mC]*d[5mC]*k[5mC]*k[5mC]*kT; antisense) [compound 800005]
% Inhibition [2]: 27%

800006 (k[5mC]*kA*kA*dG*dG*dA*dA*dT*dT*dT*dT*d[5mC]*d[5mC]*k[5mC]*k[5mC]*kT; antisense) [compound 800006]
% Inhibition [2]: 41%

800007 (k[5mC]*kT*k[5mC]*dA*dA*dG*dG*d[5mC]*d[5mC]*dA*d[5mC]*dA*dT*kT*kT*kT; antisense) [compound 800007]
% Inhibition [2]: 23%

800008 (kG*kA*kA*d[5mC]*dA*dG*dA*d[5mC]*d[5mC]*dA*dG*dA*d[5mC]*k[5mC]*k[5mC]*kT; antisense) [compound 800008]
% Inhibition [2]: 40%

800009 (kT*kG*k[5mC]*dT*d[5mC]*dA*dT*dG*dA*dA*dT*dG*dA*kA*k[5mC]*kA; antisense) [compound 800009]
% Inhibition [2]: 51%

800011 (k[5mC]*kT*kT*d[5mC]*dA*dG*d[5mC]*d[5mC]*dT*dG*dT*dG*dT*kT*kT*kG; antisense) [compound 800011]
% Inhibition [1]: 21%

800012 (kG*kA*kG*dG*dA*d[5mC]*dT*dT*d[5mC]*dA*dG*d[5mC]*d[5mC]*kT*kG*kT; antisense) [compound 800012]
% Inhibition [1]: 49%

800013 (kA*kA*kA*dG*dG*dA*dG*dA*dG*dG*dA*d[5mC]*dT*kT*k[5mC]*kA; antisense) [compound 800013]
% Inhibition [1]: 56%

800014 (kT*kA*kA*dA*dG*d[5mC]*dA*dT*dA*dA*dA*dA*dT*k[5mC]*k[5mC]*kT; antisense) [compound 800014]
% Inhibition [1]: 21%

800015 (k[5mC]*kT*kT*dT*dA*dA*dG*dG*dT*dG*dT*dT*dG*k[5mC]*k[5mC]*k[5mC]; antisense) [compound 800015]
% Inhibition [1]: 26%

800016 (kG*kT*kT*d[5mC]*dA*dT*dT*dT*dT*dA*dA*dA*dG*k[5mC]*kA*kT; antisense) [compound 800016]
% Inhibition [1]: 32%

800017 (kT*kA*kA*dA*dA*d[5mC]*dA*dG*dT*dA*dT*dG*dT*kG*kT*kT; antisense) [compound 800017]
% Inhibition [1]: 11%

800018 (kA*kA*kA*dA*d[5mC]*dT*d[5mC]*dA*d[5mC]*dA*dG*dT*d[5mC]*k[5mC]*kT*kT; antisense) [compound 800018]
% Inhibition [1]: 51%

800019 (kG*kG*k[5mC]*dA*dA*dA*dA*d[5mC]*dT*d[5mC]*dA*d[5mC]*dA*kG*kT*k[5mC]; antisense) [compound 800019]
% Inhibition [2]: 61%

800020 (kA*kA*k[5mC]*d[5mC]*dT*d[5mC]*dT*dG*dA*dA*dG*dG*d[5mC]*kA*kA*kA; antisense) [compound 800020]
% Inhibition [2]: 21%

800021 (kG*kG*k[5mC]*d[5mC]*dT*d[5mC]*dT*d[5mC]*dG*d[5mC]*dT*dG*dA*kT*kA*kG; antisense) [compound 800021]
% Inhibition [2]: 0%

800022 (kG*kG*kA*dA*dG*dA*dG*d[5mC]*d[5mC]*dT*dT*dG*dG*k[5mC]*k[5mC]*kT; antisense) [compound 800022]
% Inhibition [2]: 30%

800023 (kA*kG*kG*dA*dA*dG*dA*dG*d[5mC]*d[5mC]*dT*dT*dG*kG*k[5mC]*k[5mC]; antisense) [compound 800023]
% Inhibition [2]: 0%

800024 (k[5mC]*kA*kA*dG*dG*dA*d[5mC]*dT*dA*dA*dG*dG*dA*kA*kG*kA; antisense) [compound 800024]
% Inhibition [2]: 18%

800026 (kT*k[5mC]*kA*dG*dT*dA*d[5mC]*dA*dA*dG*dG*dA*d[5mC]*kT*kA*kA; antisense) [compound 800026]
% Inhibition [2]: 50%

800027 (k[5mC]*kG*k[5mC]*dT*dT*dT*dG*d[5mC]*dT*d[5mC]*d[5mC]*d[5mC]*dA*kG*kG*kG; antisense) [compound 800027]
% Inhibition [2]: 0%

800028 (k[5mC]*kA*k[5mC]*dA*dG*d[5mC]*d[5mC]*d[5mC]*dA*d[5mC]*dA*d[5mC]*dG*kA*kG*kT; antisense) [compound 800028]
% Inhibition [2]: 10%

800029 (k[5mC]*k[5mC]*kT*dG*dA*dA*dT*d[5mC]*dG*dG*dG*d[5mC]*d[5mC]*k[5mC]*kA*k[5mC]; antisense) [compound 800029]
% Inhibition [1]: 0%

800030 (kA*kA*kA*d[5mC]*dA*d[5mC]*dA*dG*dT*dT*d[5mC]*d[5mC]*d[5mC]*kT*kG*kA; antisense) [compound 800030]
% Inhibition [1]: 0%

800032 (kG*kA*kA*dT*dT*d[5mC]*d[5mC]*d[5mC]*d[5mC]*dG*d[5mC]*d[5mC]*dA*kT*kT*kT; antisense) [compound 800032]
% Inhibition [1]: 0%

800033 (k[5mC]*kA*k[5mC]*dT*dA*d[5mC]*dA*dG*dA*dG*dA*dT*dT*k[5mC]*k[5mC]*k[5mC]; antisense) [compound 800033]
% Inhibition [1]: 52%

800034 (k[5mC]*k[5mC]*kG*d[5mC]*dA*d[5mC]*dG*dA*d[5mC]*dA*dT*d[5mC]*d[5mC]*k[5mC]*k[5mC]*k[5mC]; antisense) [compound 800034]
% Inhibition [1]: 47%

800035 (k[5mC]*kA*kA*dA*dG*dG*d[5mC]*d[5mC]*d[5mC]*d[5mC]*dT*d[5mC]*dG*kA*kA*k[5mC]; antisense) [compound 800035]
% Inhibition [1]: 34%

800036 (kG*kT*kT*dA*dG*dG*dA*d[5mC]*dA*dG*d[5mC]*dT*d[5mC]*k[5mC]*kA*kG; antisense) [compound 800036]
% Inhibition [1]: 38%

800037 (k[5mC]*kA*k[5mC]*d[5mC]*dA*dG*d[5mC]*dA*dG*d[5mC]*d[5mC]*dT*d[5mC]*kT*kG*kT; antisense) [compound 800037]
% Inhibition [1]: 0%
